Results taken from patent publication US10125078B1, “NSAID derivatives of omega-3 polyunsaturated acids as gamma secretase modulators” (Jiva Pharma, Inc., priority 2015, dated 2018).
Where “and” joins values, the source holds several entries; their conditions need not be identical. Equal entries are not always repeated. Where two headings read alike, the source gives them in different places.

Molecular target: T1, gamma-secretase (Homo sapiens, UniProt P49768)
T1 construct: Fresh human neuroblastoma cells SHSY-5 were purchased from ATCC; host or cells: SH-SY5Y human neuroblastoma cells, untransfected
Assay: gamma-secretase modulating activity in cell cultures of human neuroblastoma SHSY-5 cells, intracellular Aβ x-40 by ELISA
Assay type: cell-based
Settings: for experiment 1 / experiment 2 / experiment 3: Aβ ELISA signal, 0 nM about 100; for bestfit2 / bestfit3 / bestfit1: fitted curve; for IC50: read-out: calculated IC50
Procedure: The gamma-secretase modulating activity of Jiva compounds were determined in Cell Cultures of fresh human neuroblastoma SHSY-5 cells. The enzyme-linked immunosorbent assay (ELISA) is one of the most commonly used, reliable, and sensitive methods for quantitating the A β peptides. The detailed methods for the recovery of both soluble and deposited A β from brain tissue and the subsequent quantitation of the peptides by ELISA are thoroughly described in literature such as Stephen D. Schmidt, et al., “Amyloid, Enzyme-linked immunosorbent assay, ELISA, Extraction, Quantification”, Methods in Molecular Biology, vol. 849, DOI 10.1007/978-1-61779-551-0_34, Springer Science+Business Media, LLC 2012; Zeljko M. Svedruzic, et al., “Modulators of γ-Secretase Activity Can Facilitate the Toxic Side-Effects and Pathogenesis of Alzheimer's Disease”, PLOS ONE, 1 Jan. 2013|Volume 8|Issue 1; Catherine R. Burton et al., “The Amyloid-β Rise and γ-Secretase Inhibitor Potency Depend on the Level of Substrate Expression” Aug. 22, 2008 The Journal of Biological Chemistry 283, 22992-23003.
The well-studied γ-secretase inhibitor, semagacestat (WIKI) was used as a positive control in the above assays.
The following are procedures used for screening gamma-secretase modulating activity of Jiva compounds in cell cultures.
Protocol for Growing SHSY-5 Cells:
Fresh human neuroblastoma cells SHSY-5 were purchased from ATCC in the […]. All SHSY-5 cells were propagated and grown in p75 flasks, following the supplier's instructions. Briefly, SH-SY5Y cells were grown to confluence in Dulbecco's Modified Eagles Medium (DMEM) supplemented with 2 mM L-glutamine, 1× nonessential amino acids, and 0.22 micrometers filtered 10% heat inactivated fetal bovine serum (FBS) in a 5% CO2 humidified incubator at 37° C. Cultures were split twice a week and cells were seeded at 2.5×10^4 cells/cm^2. The cells were detached from the bottles after two phosphate buffer washes that were followed by 5 min treatment with 0.25% trypsine solution.
Protocol for Preparation of Jiva Compounds and the Initial Screening:
Jiva compounds were dissolved under sterile conditions in different volumes of molecular biology grade dimethylsulfoxide (DMSO) so that the final concentration was 200 mM, with the goal to screen in a concentration range from 50 to 1000 μM. Thus, between 1 μL to 20 µL of DMSO solution of each Jiva compound was added to 4 mL of sterile cell media with FBS adjusted to 1%. The cells were incubated with different compounds for 18 h (i.e. overnight). Following the incubation cells were tested for viability and morphology. The first viability criteria was attachment to the surface, the second viability criteria was resistance to trypan blue uptake. Only viable cells were harvested for ELISA screening.
Confluent cells were scraped from p25 cell-culture bottles and collected in pellets by centrifugation for 5 mins at 1000 g. To measure intracellular amyloid β, the centrifugation helps in concentrating Aβ1-40 peptides for measurements. About 40 micro grams of cell can be recovered from 4 mL cell medium in p25 cell culture bottles. The cell pellets were re-suspended in RIPA buffer and incubated on ice for 30 min.
RIPA buffer means 150 mM sodium chloride; 1% NP-40; 0.5% sodium deoxycholate; 0.1% SDS; 50 mM Tris pH 8.0.
Following lysis, the cell debris was separated by centrifugation, 1 h at 40,000×g. The clear supernatant was collected for ELISA measurements that followed immediately after the centrifugation.
ELISA measurements used IBL ELISA kits for Aβ x-40 using manufacturer's protocol and supplied standards. Briefly, for each measurement 100 μL sample was prepared from 12.5 μL lysis buffer and 87.5 μL ASSAYBUF solutions in each well. ASSAYBUF solution were supplied in the kit, and used to incubate cell lysate with anti-amyloid antibody attached to the wells in ELISA plates. The plate covered with plate-lid was incubated with gentle shaking overnight at 4° C. […]

[1] = 100000.0 nM, listed as JIVA002B
[2] = 1000000.0 nM, listed as JIVA002B

CC/C=C\C/C=C\C/C=C\C/C=C\C/C=C\CCCCC(C(=O)O)C1CC1 (racemic) [JIVA 28, EPA Cyclopropyl-acetic acid-fibrate]
experiment 1 (21.4 nM): 101 | experiment 2 (21.4 nM): 103 | experiment 3 (21.4 nM): 104 | bestfit2 (21.4 nM): 100.0 | bestfit3 (21.4 nM): 100.0 | bestfit1 (21.4 nM, listed as JIVA002B): 100.0 and 99.9 | experiment 1 (74.1 nM): 98 | experiment 2 (74.1 nM): 102 | experiment 3 (74.1 nM): 108 | bestfit2 (74.1 nM): 99.9 | bestfit1 (74.1 nM, listed as JIVA002B): 99.8 and 99.7 | bestfit3 (74.1 nM, listed as JIVA002B): 99.9 and 99.8 | experiment 1 (100.0 nM): 102 | experiment 2 (100.0 nM): 99 | experiment 3 (100.0 nM): 97 | bestfit1 (100.0 nM, listed as JIVA002B): 99.8 and 99.6 | bestfit2 (100.0 nM, listed as JIVA002B): 99.9 and 99.6 | bestfit3 (100.0 nM, listed as JIVA002B): 99.9 and 99.5 | experiment 1 (213.8 nM): 101 | experiment 2 (213.8 nM): 95 | experiment 3 (213.8 nM): 100 | bestfit1 (213.8 nM, listed as JIVA002B): 99.5 and 99.1 | bestfit2 (213.8 nM, listed as JIVA002B): 99.7 and 99.6 | bestfit3 (213.8 nM, listed as JIVA002B): 99.7 and 99.5 | experiment 1 (741.3 nM): 97 | experiment 2 (741.3 nM): 100 | experiment 3 (741.3 nM): 94 | bestfit1 (741.3 nM, listed as JIVA002B): 98.5 and 97.0 | bestfit2 (741.3 nM, listed as JIVA002B): 99.1 and 98.6 | bestfit3 (741.3 nM, listed as JIVA002B): 99.0 and 98.3 | experiment 2 (1000.0 nM): 101 | experiment 3 (1000.0 nM): 104 | experiment 1 (1000.0 nM, listed as JIVA002B): 96 and 95 | bestfit1 (1000.0 nM, listed as JIVA002B): 97.8 and 96.0 | bestfit2 (1000.0 nM, listed as JIVA002B): 99.8 and 98.2 | bestfit3 (1000.0 nM, listed as JIVA002B): 98.6 and 97.8 | experiment 1 (2138.0 nM): 90 | experiment 2 (2138.0 nM): 98 | experiment 3 (2138.0 nM): 90 | bestfit2 (2138.0 nM, listed as JIVA002B): 97.5 and 96.2 | bestfit3 (2138.0 nM, listed as JIVA002B): 97.1 and 95.4 | experiment 2 (7413.1 nM): 85 | experiment 1 (7413.1 nM, listed as JIVA002B): 90 and 75 | experiment 3 (7413.1 nM, listed as JIVA002B): 96 and 79 | bestfit1 (7413.1 nM, listed as JIVA002B): 85.6 and 76.4 | bestfit2 (7413.1 nM, listed as JIVA002B): 91.9 and 87.9 | bestfit3 (7413.1 nM, listed as JIVA002B): 90.5 and 85.6 | experiment 2 (10000.0 nM): 85 | experiment 1 (10000.0 nM, listed as JIVA002B): 88 and 71 | bestfit1 (10000.0 nM, listed as JIVA002B): 81.5 and 70.6 | bestfit2 (10000.0 nM, listed as JIVA002B): 89.4 and 84.4 | bestfit3 (10000.0 nM, listed as JIVA002B): 87.7 and 81.5 | experiment 1 (21379.5 nM, listed as JIVA002B): 73 and 58 | experiment 2 (21379.5 nM, listed as JIVA002B): 73 and 62 | experiment 3 (21379.5 nM, listed as JIVA002B): 79 and 64 | bestfit1 (21379.5 nM, listed as JIVA002B): 57.3 and 52.9 | bestfit2 (21379.5 nM, listed as JIVA002B): 79.7 and 71.6 | bestfit3 (21379.5 nM, listed as JIVA002B): 76.9 and 67.3 | experiment 2 (74131.0 nM): 46 | experiment 1 (74131.0 nM, listed as JIVA002B): 28 and 18 | experiment 3 (74131.0 nM, listed as JIVA002B): 57 and 33 | bestfit2 (74131.0 nM, listed as JIVA002B): 53.1 and 42.1 | bestfit3 (74131.0 nM, listed as JIVA002B): 48.9 and 37.2 | experiment 1 [1]: 26 and 13 | experiment 2 [1]: 49 and 33 | experiment 3 [1]: 46 and 27 | bestfit2 [1]: 45.7 and 35.1 | bestfit3 [1]: 41.5 and 30.5 | experiment 1 (1000000.0 nM): 2 | experiment 2 (1000000.0 nM): 8 | experiment 3 (1000000.0 nM): 2 | bestfit1 [2]: 4.2 and 2.3 | bestfit2 [2]: 7.7 and 5.1 | bestfit3 [2]: 6.6 and 4.2 | average signal triplicates (20 microM, cells incubated 18 h, ELISA OD 450 nm): 0.162 | signal nomalised to cells (20 microM, normalised to collected cell mass): 0.034 | sign-bkgr (20 microM, signal minus background): 0.042 | IC50 (first, experiment 1): 44 µM and 24 µM | IC50 (second, experiment 2): 84 µM and 54 µM | IC50 (third, experiment 3): 71 µM and 44 µM
